Source: the NIST ThermoML archive (doi:10.1016/j.jct.2012.06.030)

Experiment: molar heat capacity at constant pressure; xn = mol fraction of the nth substance listed
Settings: 101 kPa, Liquid, Small sample (50 mg) DSC

CCCCCC[n+]1ccc2ccccc2c1.N#C[S-] [2-hexylisoquinolinium thiocyanate] + O
molar heat capacity at constant pressure [J/K/mol]
Settings | x1 = 0.2887 | x1 = 0.4013 | x1 = 0.5043 | x1 = 0.6059 | x1 = 0.6997 | x1 = 0.7864 | x1 = 0.8824 | x1 = 1
288.15 K | 189 | 220 | 265 | 298 | 333 | 347 | 390 | 433
293.15 K | 191 | 222 | 267 | 300 | 335 | 350 | 392 | 436
298.15 K | 192 | 224 | 269 | 302 | 337 | 352 | 395 | 439
303.15 K | 193 | 225 | 271 | 304 | 340 | 354 | 397 | 442
308.15 K | 195 | 226 | 272 | 306 | 341 | 357 | 400 | 445
313.15 K | 196 | 228 | 274 | 308 | 343 | 359 | 402 | 447
318.15 K | 197 | 229 | 276 | 309 | 346 | 361 | 404 | 450
323.15 K | 198 | 230 | 277 | 311 | 348 | 363 | 406 | 453
328.15 K | 198 | 232 | 278 | 312 | 350 | 365 | 409 | 456
333.15 K | 199 | 233 | 280 | 314 | 352 | 367 | 411 | 458
338.15 K | 200 | 234 | 281 | 316 | 353 | 369 | 413 | 461
343.15 K | 201 | 235 | 283 | 318 | 355 | 371 | 415 | 463
